Test results reported in US7510825B2, “Kits and methods for detection of apoptotic cells” (NST NeuroSurvival Technologies Ltd, priority 2000, dated 2009).

Assays:
[1] = test system: Jurkat cells (T-cell leukemia); assay: Binding of DDC and PI to Jurkat cells treated with CD95, confocal microscopy; type: cell-based, human; settings: CD95 for 180 minutes; confocal microscope
Description: For microscopic analysis the concentration of cells should be within 1-2×10^7/ml. […] If fixation is needed, it should be performed after DDC staining. • 1. Adjusting the cells to 1-2×10^7/ml in buffer. • 2. Transferring 96 μl from the cell suspension to an eppendorf and staining the cells by adding 4 μl from the DDC solution. Incubating for 10-40 minutes at RT protected from light. • 3. A double labeling could be conducted with PI, if desired. In such a case, 1 μl is added from the PI solution. • 4, Placing the cell suspension on a glass slide. Covering the cells with a glass coverslip. Alternatively, for analyzing adherent cells, cells may grow directly on coverslip. Staining the cells by incubation with DDC (4 μl of DDC/96 μl buffer reaction) or 10-40 minutes and PI (1 μl). […] Observing the cells under fluorescent or confocal microscope equipped with the appropriate UV filter (excitation at 360-370 nm, band pass, and emission at 420 nm, barrier filter. Using a Triple filter (Hoechst/FITC/Texas Red) allows concomitant observation of both DDC and PI. Quantitative Assay for DDC Accumulation using Fluorescene Spectroscopy
Jurkat cells (T-cell leukemia) were treated with CD95 for 180 minutes and incubated with DDC followed by incubation with Propidium Iodide (PI) as detailed in DDC protocols IIIC. The cells were analyzed under fluorescent confocal microscope using a UV filter. […]

[2] = test system: injured renal tissues (outer medulla); assay: Radiocontrast-induced distal tubular necrosis model, detection by DDC; type: in vivo, rat; settings: 24 h after radiocontrast insult, DDC i.v. 2 hours
Description: (§1) A. Administration of DDC in-vivo: Injection of 200 μl of DDC intravenously. Following 1-2 hours, animal is sacrificed, and the desired organ is placed in a test tube or on a small plate, suitable for liquid nitrogen freezing. The plate is then covered with an aluminum foil, and transferred to liquid nitrogen. Following 5-30 minutes the specimen is being frozen to −80° C. and kept at −80° C. for at least 16 hr. B. Analysis of the Specimen: • a. Whole organ imaging Ex-vivo whole organ fluorescence imaging may be carried out on freshly excised specimen, that can be analyzed under a stereomicroscope (such as Leica MZ FL III, Leica Switzerland). DDC may be visualized using 360cx and >420cm nm filter set. Emitted fluorescence can be imaged using appropriate camera and software, such as a Leica DC 300F Distal camera and images can be processed and analyzed by Leica QWin Lite software. • b. […] Analysis of the tissue sections can be performed using a fluorescence microscope with a UV filter characterized by excitation at 360-370 nm (band pass) and emission at 420 nm (barrier filter) In case that staining of the examined tissue is desired, the following procedures can be applied:
The selectivity of DDC uptake in injured renal tissues was evaluated in this rat model, characterized by selective medullary hypoxic tubular damage. […]

[3] = test system: ischemic brain, damaged neuronal cells; assay: DDC staining of ischemic damage following transient MCA occlusion; type: in vivo, rats; settings: 2 h MCA occlusion and reperfusion, DDC at 22 hours
Description: as §1, with “DDC may be visualized using 360cx and >420cm nm filter set.” left out
Transient focal ischemia was induced by middle cerebral artery (MCA) occlusion and reperfusion. […] At 22 hours from MCA occlusion, neurological score was assessed and DDC was injected I.V. (as detailed in DDC protocols II-A) for a successive 2 h before sacrificing the animals. […]

[4] = test system: MCF-7 breast carcinoma tumors; assay: Detection by DDC of apoptosis in breast carcinoma after irradiation; type: in vivo, mice; settings: following irradiation (two doses of 8 Gray) vs non irradiated
Description: A. Administration of DDC in-vivo: Injection of 200 μl of DDC intravenously. Following 1-2 hours, animal is sacrificed, and the desired organ is placed in a test tube or on a small plate, suitable for liquid nitrogen freezing. The plate is then covered with an aluminum foil, and transferred to liquid nitrogen. Following 5-30 minutes the specimen is being frozen to −80° C. and kept at −80° C. for at least 16 hr. B. Analysis of the Specimen: • a. Whole organ imaging Ex-vivo whole organ fluorescence imaging may be carried out on freshly excised specimen, that can be analyzed under a stereomicroscope (such as Leica MZ FL III, Leica Switzerland). DDC may be visualized using 360cx and >420cm nm filter set. Emitted fluorescence can be imaged using appropriate camera and software, such as a Leica DC 300F Distal camera and images can be processed and analyzed by Leica QWin Lite software. • b. Histological analysis, from the frozen organ or tissue, 4 μm cryosections are prepared on slides. Analysis of the tissue sections can be performed using a fluorescence microscope with a UV filter characterized by excitation at 360-370 nm (band pass) and emission at 420 nm (barrier filter) In case that staining of the examined tissue is desired, the following procedures can be applied: […]

cardiomyocytes = assay: Focal uptake of DDC in heart following sepsis (CLP); type: in vivo, mice; settings: 24 h after cecal ligature and perforation
Description: A. Administration of DDC in-vivo: Injection of 200 μl of DDC intravenously. Following 1-2 hours, animal is sacrificed, and the desired organ is placed in a test tube or on a small plate, suitable for liquid nitrogen freezing. The plate is then covered with an aluminum foil, and transferred to liquid nitrogen. Following 5-30 minutes the specimen is being frozen to −80° C. and kept at −80° C. for at least 16 hr. B. Analysis of the Specimen: • a. Whole organ imaging Ex-vivo whole organ fluorescence imaging may be carried out on freshly excised specimen, that can be analyzed under a stereomicroscope (such as Leica MZ FL III, Leica Switzerland). DDC may be visualized using 360cx and >420cm nm filter set. Emitted fluorescence can be imaged using appropriate camera and software, such as a Leica DC 300F Distal camera and images can be processed and analyzed by Leica QWin Lite software. • b. Histological analysis, from the frozen organ or tissue, 4 μm cryosections are prepared on slides. Analysis of the tissue sections can be performed using a fluorescence microscope with a UV filter characterized by excitation at 360-370 nm (band pass) and emission at 420 nm (barrier filter) In case that staining of the examined tissue is desired, the following procedures can be applied:
The cecum of anesthetized mice was isolated, ligated distal to the ileocaecal valve, and punctured twice with 26-gauge needle. […]

[5] = test system: hepatocytes (liver sections); assay: Detection by DDC in vivo of liver-cell apoptosis induced by anti-Fas antibody; set-up: species or system mice
Description: Selective detection of apoptotic cells in vivo has numerous diagnostic and therapeutic clinical applications. […] Treatment of mice with anti-Fas monoclonal agonistic antibody induces apoptosis of hepatocytes, leading to animal death of within several hours. The study included intravenous administration of DDC to anti-Fas-Ab-injected mice, as well as to control, untreated animals. Fluorescence histopathological studies were then performed to evaluate the level of DDC binding.
Five-week-old male BALB/c mice were injected intravenously with 10 μg/animal of purified hamster anti-Fas nAb. Mice were then injected intravenously with 70 mg/Kg of DDC. Injections were performed 30 minutes after antibody treatment. Control animals were injected with DDC only, without antibody administration. All animals were sacrificed three hours after administration of the antibody, followed by organ removal. Liver was sectioned transversely across the mid-portion of each lobe, dipped immediately into liquid nitrogen, and then transferred to −80° C. for 24 hours. Organs were then transferred into OCT solution, and cryosections (5 μm) were prepared. These sections were taken for fluorescent microscopy. Parallel sections were stained with hematoxylin/eosin (H&E), for simultaneous evaluation of the characteristic apoptotic morphology of the cells manifesting DDC binding.

SMILES: CN(C)c1cccc2c(S(=O)(=O)NC(CSSCC(NS(=O)(=O)c3cccc4c(N(C)C)cccc34)C(=O)O)C(=O)O)cccc12 (centres unmarked) [DDC]
- cellular staining pattern in apoptotic cells [1]: accumulated within the cytoplasm of early and late apoptotic cells
- DDC distribution pattern versus morphological findings in the contralateral kidney [2]: closely followed the characteristic striped pattern
- DDC staining around the ischemic core and in the non-damaged contra-lateral hemisphere [3]: No staining was detected
- DDC staining of the ischemic core ([3]; ex-vivo coronal section): high intensity staining
- uptake of DDC into single cells of the tumor [4]: increased uptake
- fluorescence of DDC in cardiomyocytes following sepsis (cardiomyocytes): can be seen in single cardiomyocites
- binding of DDC in liver sections ([5]; animals treated with anti-Fas Ab 10 μg/animal, 70 mg/Kg DDC i.v.): marked, specific binding
- binding of DDC in liver sections ([5]; control animals, 70 mg/Kg DDC i.v. only): no significant binding
